Experimental data published in patent US20210386365A1, “BIOMARKERS OF NEUROPATHIC PAIN” (Children`s Medical Center Corporation, priority 2018, published 2021).

Test system: SNI mice
Experiment: EEG/EMG sleep analysis (NREMS fragmentation by brief awakenings) in spared nerve injury mice treated with analgesic drugs
Assay type: in vivo
Settings: for sleep fragmentation: mice with nerve injury, efficacy at doses active in patients with neuropathic pain
Text: EEG/EMG implantation surgery: C57BL6/j mice were anesthetized with isoflurane gas (3% induction/2% maintenance) and placed in a stereotaxic apparatus (David Kopf Instruments, Tujunga, Calif.). […] Two flexible EMG electrodes(multistranded stainless steel wire; AS131, Cooner Wire, Chatsworth, Calif.) were inserted into the neck extensor muscles. All electrodes were previously soldered to a six-pin connector (MMX852-10-006-10-001000; Mill-Maz Mfg. Corp., Oyster Bay, N.Y.) and covered with epoxy glue to ensure insulation. The headmount was affixed to the animal's skull with dental acrylic cement, and the scalp wound was sutured closed behind the headmount. Mice were given meloxicam (5 mg/kg, i.p.) before they regained consciousness and then daily for 3 days and were housed singly after surgery.
EEG/EMG acquisition: Ten to fifteen days after EEG/EMG implantation, mice were transferred to individual sleep-recording cages (transparent cylindrical cage, 12″ diameter and 12″ height) in a sound-attenuated chamber with a 12:12 h light-dark cycle, ad libitum food and water, and connected to a tethered pre-amplifier (100× gain, 0.5 Hz high-pass filter for EEG, 10 Hz high-pass filter for EMG; Pinnacle Technology Inc., Lawrence, Kans., USA). The other end of the tether was plugged into a low-torque commutator (8204, Pinnacle Technology Inc., Lawrence, Kans., USA) for freely moving recordings. A data conditioning and acquisition system (DCAS, 8206) performed secondary amplification and filtering (low-pass filter: 100 Hz for EEG, 200 Hz for EMG). Mice habituated for 3-5 days to the recording setup before their baseline sleep-wake and sensory behaviors were measured.
Spared nerve injury (SNI): surgery was performed under 3% induction/2% maintenance with isoflurane on adult mice (8 to 12 weeks old). The tibial and common peroneal branches of the sciatic nerve were tightly ligated with a 5.0 silk suture and transected distally, while the sural nerve was left intact (Decosterd and Woolf, 2000). After injury, incision was sutured and mice were allowed to recover on heated pads before being returned to their homecage. The surgeon who performed the SNI was blinded to the genotype. This model causes permanent pain hypersensitivity. Sciatic nerve crush (SNcrush): surgery was performed under 3% induction/2% maintenance with isoflurane on adult mice (8 to 12 weeks old). The left sciatic nerve was exposed just below the sciatic notch under sterile conditions and then crushed using Dumont #5/45 forceps for 30 seconds under a dissection microscope. After the nerve injury, the incision wound was sutured and animals were allowed to recover on heated pads before being returned to their home cage. The surgeon who performed the SNcrush was blinded to the treatment. This model causes transient hypersensitivity before return to normal sensitivity. Sham control: surgery was performed under 3% induction/2% maintenance with isoflurane on adult mice (8 to 12 weeks old). The left sciatic nerve was exposed but left intact and the animals were allowed to recover on heated pads before being returned to their home cage.
EEG and EMG signals were digitized at a sampling rate of 400 Hz through Sirenia® Acquisition software (Pinnacle Technology Inc, Lawrence, Kans., USA) and converted to European Data Format (.EDF). Using SleepSign® for Animal (Kissei Comtec Co., Japan) software, EEG and EMG signals were digitally filtered (EEG, 0.5-100 Hz; EMG, 10-200 Hz) and scored semi-automatically using 10-s epochs, as wake, NREMS or REMS. This preliminary scoring was visually inspected by a trained experimenter, who was blinded to the experimental conditions, and corrected when appropriate. To evaluate sleep fragmentation, transient waking events occurring during NREMS were evaluated: these brief awakenings (BAs) were defined by a high-frequency low-amplitude EEG associated with an increase of EMG tone ranging from 2-15 s (Franken et al., 1991; Tobler et al., 1997). […]

SMILES | total amount of sleep (SNI mice with and without GBP treatment, FIG. 8C) | latency on sleep (time from full wakefulness to sleep) (SNI mice with and without GBP treatment, FIG. 8D) | time after administration at which effects on NREMS length were the strongest (SNI mice, FIG. 8B) [h] | sedation (SNI mice, gabapentin treatment) | average length of NREMS (SNI mice, gabapentin treatment, FIG. 8A) | sleep fragmentation | average length of NREM (SNI mice, carbamazepine 5 mg/kg versus saline, FIGS. 8E-8G)
NCC1(CC(=O)O)CCCCC1 [gabapentin] | not affected | slight increase | 0 to 2 | without causing sedation | restored the average length of NREMS | dose-dependently normalize sleep fragmentation | –
NC(=O)N1c2ccccc2C=Cc2ccccc21 [carbamazepine] | – | – | – | – | – | dose-dependently normalize sleep fragmentation | restored the average length of NREM
